Legend:
Format in all cases: cell-based
[1] = system: PRMT5 (SDMA) in HAP1 MTAP-intact cell line; assay: SDMA in-cell western assay, HAP1 MTAP-intact cell line; settings: Homo sapiens, HAP1 MTAP-intact cell line (endogenous MTAP), read-out: Hap 1 MTAP intact IC50
Source text: (§1) HAP1 MTAP-intact is a cell line in which endogenous levels of MTAP are expressed, and HAP1 MTAP-deleted is an MTAP-null cell line.

[2] = system: PRMT5 (SDMA) in HAP1 MTAP-deleted cell line; assay: SDMA in-cell western assay, HAP1 MTAP-deleted cell line; settings: for IC50 / IC90: Homo sapiens, SDMA in-cell western, HAP1 MTAP-deleted (MTAP-null) cell line; for Hap1 MTAP intact/deleted ratio: ratio of SDMA in-cell western IC50 in HAP1 MTAP-intact to IC50 in HAP1 MTAP-deleted cell line
Source text: as §1

[3] = system: HAP1 MTAP-deleted cell line; assay: viability assay for the MTAP-deleted cell line; settings: Homo sapiens

Structure (SMILES) | IC50 [1] [nM] | IC50 [2] [nM] | IC90 [2] [nM] | Hap1 MTAP intact/deleted ratio [2] | IC50 [3] [nM]
C[C@@H]1CN(C(=O)C(=O)Nc2cnc(N)c(C3COC3)c2)[C@@H](c2ccc(F)cc2)CN1C(=O)OC(C)(C)C [Compound 2, (2R,5S)-tert-butyl 4-(2-((6-amino-5-(oxetan-3-yl)pyridin-3-yl)amino)-2-oxoacetyl)-5-(4-fluorophenyl)-2-methylpiperazine-1-carboxylate] | > 50 | < 5 | < 75 | C (an IC50 ratio of less than 15 fold) | < 100
C[C@H]1CN(C(=O)C(=O)Nc2cnc(N)c(C3CC3)c2)[C@H](c2ccc(F)cc2)CN1C(=O)CC1CC1 [Compound 6] | > 50 | 5 to 50 | 75 to 125 | B (an IC50 ratio greater than or equal to 15 fold but lower than 30 fold) | < 100
Cc1cc(NC(=O)C(=O)N2C[C@@H](C)N(C(=O)C(C)(C)C)C[C@@H]2c2cccc(N3CCN(C)CC3)c2)cnc1N [Compound 7, N-(6-amino-5-methylpyridin-3-yl)-2-((2S,5R)-5-methyl-2-(3-(4-methylpiperazin-1-yl)phenyl)-4-pivaloylpiperazin-1-yl)-2-oxoacetamide] | < 5 | < 5 | < 75 | C (an IC50 ratio of less than 15 fold) | < 100
C[C@@H]1CN(C(=O)C(=O)Nc2cnc(N)c(C3CC3)c2)[C@@H](c2ccc(F)cc2)CN1C(=O)C1(C)CC1 [Compound 8, N-(6-amino-5-cyclopropylpyridin-3-yl)-2-((2S,5R)-2-(4-fluorophenyl)-5-methyl-4-(1-methylcyclopropanecarbonyl)piperazin-1-yl)-2-oxoacetamide] | 5 to 50 | < 5 | < 75 | C (an IC50 ratio of less than 15 fold) | < 100
C[C@@H]1CN(C(=O)C(=O)Nc2cncc3cn[nH]c23)[C@@H](c2cccc(Cl)c2)CN1C(=O)C(C)(C)C [Compound 9, 2-((2S,5R)-2-(3-chlorophenyl)-5-methyl-4-pivaloylpiperazin-1-yl)-2-oxo-N-(1H-pyrazolo[4,3-c]pyridin-7-yl)acetamide] | > 50 | 5 to 50 | > 125 | B (an IC50 ratio greater than or equal to 15 fold but lower than 30 fold) | 100 to 1000
COc1ncc(NC(=O)C(=O)N2C[C@@H](C)N(C(=O)C(C)C)C[C@@H]2c2cccc(N3CCN(C)CC3)c2)cc1C(N)=O [Compound 10, 5-(2-((2S,5R)-4-isobutyryl-5-methyl-2-(3-(4-methylpiperazin-1-yl)phenyl)piperazin-1-yl)-2-oxoacetamido)-2-methoxynicotinamide] | > 50 | 5 to 50 | > 125 | C (an IC50 ratio of less than 15 fold) | 100 to 1000
Cc1cc(NC(=O)C(=O)N2C[C@@H](C)N(C(=O)C(C)C)C[C@@H]2c2ccc(N3CCN(C)CC3)cc2)cnc1N [Compound 11, N-(6-amino-5-methylpyridin-3-yl)-2-((2S,5R)-4-isobutyryl-5-methyl-2-(4-(4-methylpiperazin-1-yl)phenyl)piperazin-1-yl)-2-oxoacetamide] | 5 to 50 | < 5 | < 75 | C (an IC50 ratio of less than 15 fold) | < 100
COc1ncc(NC(=O)C(=O)N2C[C@@H](C)N(C(=O)C(C)C)C[C@@H]2c2ccc(F)c(Cl)c2)cc1C(N)=O [Compound 12, 5-(2-((2S,5R)-2-(3-chloro-4-fluorophenyl)-4-isobutyryl-5-methylpiperazin-1-yl)-2-oxoacetamido)-2-methoxynicotinamide] | > 50 | 5 to 50 | > 125 | A (an IC50 ratio greater than or equal to 30 fold) | 100 to 1000
Cc1cc(NC(=O)C(=O)N2C[C@@H](C)N(C(=O)C(C)(C)CN(C)C)C[C@@H]2c2ccccc2)cnc1N [Compound 13] | > 50 | 5 to 50 | < 75 | C (an IC50 ratio of less than 15 fold) | < 100
C[C@@H]1CN(C(=O)C(=O)Nc2cnc(N)c(C3CC3)c2)[C@@H](c2ccc(F)c(Cl)c2)CN1C(=O)C1(C(F)(F)F)CC1 [Compound 14, N-(6-amino-5-cyclopropylpyridin-3-yl)-2-((2S,5R)-2-(3-chloro-4-fluorophenyl)-5-methyl-4-(1-(trifluoromethyl)cyclopropanecarbonyl)piperazin-1-yl)-2-oxoacetamide] | > 50 | < 5 | < 75 | C (an IC50 ratio of less than 15 fold) | < 100
CC(C)CN1C[C@H](c2ccccc2)N(C(=O)C(=O)Nc2cnc(N)c3cn[nH]c23)C[C@H]1C [Compound 16] | 5 to 50 | < 5 | < 75 | A (an IC50 ratio greater than or equal to 30 fold) | < 100

From US20250282749A1 (Tango Therapeutics, Inc., priority 2022, published 2025)
